One assay concerns type I collagen (COL1A1). The assay can be described thus: COL1A1 level in UVB-damaged mouse skin by immunoblot. In kind it is in vivo, nude mice. As to conditions: 8-week UVB, then ointment plus microneedle for 2 weeks; untreated normal group set to 100%. As to the method: Skin tissues were homogenized in ice-cold lysis buffer containing 20 mM HEPES (pH 7.4), 150 mM NaCl, 1% SDS, 1 mM ethylenediamine tetraacetic acid (EDTA), 5 mM phenylmethanesulfonyl fluoride (PMSF), and 1 mM dithiothreitol (DTT), 1% Triton X-100, with freshly added protease inhibitor cocktail (Roche, Indianapolis, Ind.). Homogenates were then centrifuged at 12,000 g for 30 minutes at 4° C., and supernatants were then collected and stored at −70° C. Protein contents in lysates were determined using the Bradford assay. Whole cell lysates were prepared using the above lysis buffer. Aliquots of the lysates were then resolved on a SDS-PAGE and then electrotransferred to polyvinylidene difluoride (PVDF) membranes (Millipore, Bedford, Mass., USA) and processed for immunoblot analysis.
Antibodies used in the immunoblot study included anti-type I collagen 1A1 antibody (1:1000 dilution), anti-MMP-1 antibody (1:500 dilution) and anti-β-actin antibody (1:10000 dilution). Proteins of interest were detected using the appropriate IgG-HRP secondary antibody and ECL reagent (Amersham, Arlington Heights, Ill., USA). X-ray films were scanned on a Model GS-700 Imaging Densitometer (Bio-Rad Laboratories, Hercules, Calif.) and analyzed using Labworks 4.0 software. For quantification, blots from at least three independent experiments were used.
Six-week-old female nude mice (BALB/cAnN.Cg-Foxn1nu/CrlNarl) were irradiated with ultraviolet B (UVB) on the back 5 times a week for an eight-week period using a bank of five UVB lamps (model XL-1000B, Spectrolinker™ apparatus; emission peak: 312 nm), placed about 20 cm above the backs of the animals. During the UVB exposure, the mice were allowed to move freely within the cage. […] The level of BrdU- and vimentin-double positive cells was expressed as the percentage of BrdU- and vimentin-double positive cells per total vimentin-positive cells (the BrdU/Vimentin Labeling Index). […]

Another assay has as its system dermal fibroblasts. Nature of the assay: Dermal fibroblast proliferation in photo damaged (UVB irradiated) skin in vivo, BrdU/vimentin staining. The note with it: for BrdU/Vimentin Labeling Index (%): after 8-week UVB, ointment plus microneedle twice a week for 2 weeks. The arrangement: species or system nude mice (BALB/cAnN.Cg-Foxn1nu/CrlNarl). Here is the method: For animal study, BrdU was reconstituted in DMSO as stock (80 mM). 10 μl of BrdU stock mixed with 90 μl of PBS was intraperitoneally injected into mouse at 16 hours prior to euthanasia. Formalin-fixed, paraffin-embedded skin specimens were deparaffinized in xylene and rehydrated in a graded series of ethanol. The specimens were then exposed to 1 N HCl at room temperature for 1 hour for subsequent immunofluorescence study.
(§1) BrdU-labeled DNA was detected by polyclonal anti-BrdU antibody and rhodamine-conjugated donkey anti-rabbit IgG. Nuclei were counterstained with Hoechst 33258 (blue).
(§2) Six-week-old female nude mice (BALB/cAnN.Cg-Foxn1nu/CrlNarl) were irradiated with ultraviolet B (UVB) on the back 5 times a week for an eight-week period using a bank of five UVB lamps (model XL-1000B, Spectrolinker™ apparatus; emission peak: 312 nm), placed about 20 cm above the backs of the animals. During the UVB exposure, the mice were allowed to move freely within the cage. The irradiation intensity represented as the minimal erythe al dose (MED) was set at 1 MED during the first 2 weeks (60 mJ/cm^2), and was progressively elevated to 2 MED (120 mJ/cm^2) in the 3rd-4th week, to 3 MED (180 mJ/cm^2) in the 5th-6th week, and to 4 MED (240 mJ/cm^2) during the 7th-8th weeks of the experiment. After the 8-week UVB exposure, animals developed noticeable wrinkles and were subsequently randomly divided into the following 4 groups, with 3 mice in each group. In the UVB/vehicle, UVB/29-mer, UVB/20-mer, and UVB/18-mer groups, 350 μl of ointment (containing DMSO, 29-mer, 20-mer or 18-mer PEDF) was applied to the dorsal skin and then transdermal delivery was achieved by punching the ointment treated skin with the microneedle patch. Also, mice that were not subjected to UVB radiation were used as control (Normal). The ointment/microneedle treatment was given twice a week for 2 weeks. Mice were intraperitoneally given BrdU and euthanized at 16 hours after the last treatment. Skin sections were stained for vimentin and BrdU. The level of BrdU- and vimentin-double positive cells was expressed as the percentage of BrdU- and vimentin-double positive cells per total vimentin-positive cells (the BrdU/Vimentin Labeling Index).

Assay [1] relates to primary mouse dermal fibroblasts. The assay can be described thus: Dermal fibroblast proliferation in vitro, BrdU labeling assay. As to conditions: 24 hours; for BrdU/Vimentin Labeling Index (%): 50 nM peptide in 1% FBS medium, BrdU 2 hours. Format: cell-based, C57BL/6 mouse. Here is the method: Full-thickness skin tissue was obtained from the dorsum of C57BL/6 mouse. The subcutaneous tissue was carefully dissected from the skin and washed three times in sterile phosphate-buffered saline (PBS). The tissue was then cut into small pieces (1-2 mm^3). After being digested with 0.1% dispase at 4° C. overnight, the epidermal layers were removed, and the remaining dermal parts were further digested with 0.1% collagenase I at 37° C. for another 4 hours. The digested cells were then collected by centrifugation (400 g for 5 minutes) and resuspended in high-glucose DMEM supplemented with 10% FBS, 2 mM L-glutamine, and 1% penicillin-streptomycin antibiotic mixture. Cells were seeded onto tissue-culture plates (Falcon Labware; NJ, USA) at 1×10^3 cells/cm^2 and maintained at 37° C. with 5% CO2. After 24 hours, the medium was discarded to remove residual non-adherent cells, and cell culture was replenished with a fresh medium. For passage, near-confluent cells were harvested with 0.25% trypsin/EDTA.
After fixing with 4% paraformaldehyde, cells were exposed to cold methanol for 2 minutes, and then treated with 1 N HCl at room temperature for 1 hour before performing immunofluorescence staining.
as §1
Primary mouse dermal fibroblasts were isolated and cultured as described in the “Materials and Methods” section. The dermal fibroblast at passage 2 were seeded at gelatin-coated slide in a 6-well plate at a density of 2×10^5 cells per well and cultured in growth medium (DMEM 10% FBS) for 24 hours before being replaced by a basal growth medium with 1% FBS only (control group) or with 1% FBS plus an additional 50 nM of PEDF-derived peptide (i.e., 29-mer, 24-mer, 20-mer, 18-mer, Mo 29-mer, or Mo 20-mer) for 24 hours. For BrdU labeling assay, BrdU (final concentration, 10 μM) was added to the culture for 2 hours. The level of BrdU- and vimentin-double positive cells was expressed as the percentage of BrdU- and vimentin-double positive cells per total vimentin-positive cells (the BrdU/Vimentin Labeling Index), and the results were summarized in Table 2.

The subject of another assay is UVB-induced wrinkles. Nature of the assay: UVB-induced wrinkles in nude mice, appearance photographed. In kind it is in vivo. The note with it: 8-week UVB, then ointment plus microneedle twice a week for 2 weeks; FIG. 4.
From the text: as §2
Formation of wrinkles is closely related to repetitive exposure to UVB irradiation. […] In this working example, we investigated the anti-wrinkle effect of present PEDF peptides in nude (i.e, hairless) mice. Wrinkles were induced by an eight-week UVB irradiation according to the procedure set forth in Example 3.3 above. […]

[2] abbreviates: after UVB exposure, transdermal delivery.

Consider “Ac-SLGAEQRTESIIHRALYYDLISSPDIHGT-NH2 [29-mer]”, for which the “COL1A1 Level (%)” value in the assay with type I collagen (COL1A1) is recorded as 91.0 ± 5.0 %. In addition, the “BrdU/Vimentin Labeling Index (%)” value in the assay with dermal fibroblasts was 5.2 ± 1.9 %; in assay [1], 9.6 ± 1.6 %. The “proliferative activity of dermal fibroblasts relative to UVB/vehicle group” value with dermal fibroblasts (setting [2]) was “about 2.5 fold”. Besides, the “proliferation relative to control medium” value in assay [1] (50 nM peptide) is “about 5 fold”. The “wrinkle appearance after 2-week treatment” value (shortened to “wrinkle appearance”) in the assay on UVB-induced wrinkles was “wrinkle lines were fewer and finer”.
EQRTESIIHRALYYDLIS [18-mer]: the “COL1A1 Level (%)” value in the assay with type I collagen (COL1A1) came out at 45.0 ± 3.8%. Further, the “BrdU/Vimentin Labeling Index (%)” value in the assay on dermal fibroblasts was 2.0 ± 0.8%; in assay [1] it was 2.1 ± 0.61%. In addition, in the assay with dermal fibroblasts (setting [2]), the “effect on dermal fibroblast proliferation in UVB-damaged skin” value is reported as “failed to promote the dermal fibroblast proliferation”. In assay [1] (50 nM peptide), the “effect on dermal fibroblast proliferation in vitro” value was “failed to elicit such effect”. The “wrinkle appearance” value in the assay with UVB-induced wrinkles is “not capable of reducing the wrinkles”.
As to “SLGAEQRTESIIHRALYYDL [20-mer, synthetic peptide corresponding to residues 93-112 of human PEDF]”, in the assay on type I collagen (COL1A1), the “COL1A1 Level (%)” value is listed as 92.3 ± 9.1 %. In addition, the results for the “BrdU/Vimentin Labeling Index (%)” value (in the assay with dermal fibroblasts; in assay [1]) were 5.9 ± 1.3 % and 10.4 ± 2.3 %, respectively. Further, the “proliferative activity of dermal fibroblasts relative to UVB/vehicle group” value with dermal fibroblasts (setting [2]) was “about 2.5 fold”. Besides, the “proliferation relative to control medium” value in assay [1] (50 nM peptide) is “about 5 fold”. For the same substance, in the assay on UVB-induced wrinkles, the “wrinkle appearance” value is “wrinkle lines were fewer and finer”.

The values are drawn from patent publication US9815878B2, “Use of PEDF-derived polypeptides for preventing and/or ameliorating skin aging” (MacKay Memorial Hospital, priority 2012, dated 2017).
